Series [1] deals with Puccinia recondita var. tritici. Nature of the series: Wheat leaf rust control on sprayed wheat seedlings (Example 79). The class given is in vivo. The note with it: Puccinia recondita, 168 h; 100 ppm spray, day before inoculation. In short, it runs like this:
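Disease was scored as leaf rust pustules 7 days after a 24 h, 20° saturated-humidity incubation of seedlings inoculated with P. recondita var. tritici spores. Inoculation followed by one day a run-off spray of 100 ppm compound in water containing 6% acetone and 250 ppm TREM 014.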

Series [2] relates to Pythium aphanadermatum. The series can be described thus: Pythium control on cotton, seed coating (Example 91). The class given is in vivo. The note with it: 168 h; for pest or weed control at 2 g/kg seed: 2 gm/kg seed. From the text: Several compounds of the previous examples were incorporated into a proprietary formulation and used to coat cotton seeds at a rate of 2 gm/kg seed. After being thoroughly coated, the seeds were allowed to air dry at room temperature. The cotton seeds were then planted into soil amended with the fungus Pythium aphanadermatum, sand, and corn meal at a rate sufficient to kill most untreated seeds. The seeds were held at room temperature for 1 week, after which time disease ratings were made.

The next series relates to Cercospora arachidicola. Nature of the series: Peanut early leafspot control on sprayed peanut seedlings (Example 84). The class given is in vivo. To be noted: Mycosphaerella arachidis, 360 h, 100 ppm spray, day before inoculation; read-out: % Control Peanut Easly Leafspot.
The subject of the next series is Helminthosporium maydis. The series can be described thus: Southern corn leaf blight control on sprayed corn seedlings (Example 83). The class given is in vivo. The note with it: Bipolaris maydis, 192 h, 100 ppm spray, day before inoculation. The method, boiled down:
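Corn seedlings were sprayed to run-off with 100 ppm suspensions (6% acetone, 250 ppm TREM 014) and spore-inoculated the following day. Disease and growth reduction were rated after 24 h saturated humidity at 20° plus 7 days in a growth room.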

A further series concerns Erysiphe cichoracearum. The series can be described thus: Cucumber powdery mildew control on sprayed cucumber seedlings (Example 80). The class given is in vivo. To be noted: Golovinomyces cichoracearum, 168 h, 100 ppm spray, day before inoculation.
The test system of the next series is Venturia inaequalis. Nature of the series: Apple scab control on sprayed apple seedlings (Example 82). To be noted: Venturia inaequalis, 100 ppm spray, day before inoculation. The class given is in vivo.
A further series concerns Monilinia fructicola. The series can be described thus: Stone fruit brown rot control on dipped canned peach halves (Example 86). The note with it: 120 h, 100 ppm dip, percent growth inhibition of colonies after five days. The text has this:
Several compounds of the previous examples were again dissolved in acetone in an amount equal to 5% of the final volume and then suspended at a concentration of 100 ppm in purified water containing 700 ppm of the surfactant TREM 014 (polyhydric alcohol esters). Canned peach halves were dipped in this suspension for three minutes and then placed to air dry in sterile containers. Upon drying, the peach halves were inoculated with two pieces of Monilinia fructicola mycelium, causal agent of stone fruit brown rot, and incubated in the sterile containers for five days. At that time the radii of the colonies' growth were measured on each peach. […] Percent disease control (percent growth inhibition of colonies on treated peaches as compared to that of colonies on untreated peaches) is expressed in the table below.

Series [3] has as its system Pythium aphanadermatum. Nature of the series: Pythium control on corn, seed coating (Example 92). The class given is in vivo. The note with it: 504 h, 2 gm/kg seed. The protocol:
Several compounds of the previous examples were incorporated into a proprietary formulation and used to coat corn seeds at a rate of 2 gm/kg seed. After being thoroughly coated, the seeds were allowed to air dry at room temperature. The seeds were then planted into soil amended with a mixture of the fungus Pythium aphanadermatum, sand, and corn meal at a rate sufficient to kill most untreated seeds. The seeds were held at 49° F. for 2 weeks and then at 70° F. for 1 additional week. After this time disease ratings were made.

In a further series the test system is Rhizoctonia solani. The series can be described thus: Rice sheath blight control on sprayed rice seedlings (Example 87). The class given is in vivo. To be noted: Rhizoctonia solani, 168 h, 100 ppm spray, day before inoculation. In short, it runs like this:
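Disease ratings followed 7 days' growth-room incubation of seedlings given a bran/R. solani mycelium inoculum. Inoculation took place one day after spraying to run-off. The spray was a 100 ppm compound suspension in water containing 6% acetone and 250 ppm TREM 014.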

In a further series the test system is Pyricularia oryzae. The series can be described thus: whole plant or invertebrate. The class given is in vivo. The note with it: Pyricularia oryzae, 168 h, read-out: % Control of Rice Blast, 100 ppm spray, day before inoculation.
The test system of another series is Erysiphe graminis. Nature of the series: Barley powdery mildew control on sprayed barley seedlings (Example 81). The class given is in vivo. The note with it: Blumeria graminis, 168 h; 100 ppm spray, day before inoculation. Here is the method:
The compounds of the previous examples were again dissolved in acetone in an amount equal to 6% of the final volume and then suspended at a concentration of 100 ppm in purified water containing 250 ppm of the surfactant TREM 014 (polyhydric alcohol esters). These suspensions were sprayed to the point of run-off on barley seedlings. The following day, the plants were inoculated with a spore suspension of the fungus Erysiphe graminis, causal agent of barley powdery mildew, and incubated in growth room for 7 days. Disease ratings were then made. Treated plants from successful treatments had little or no powdery mildew in contrast to untreated plants which were covered with powdery mildew.

A further series concerns Phytophthora infestans. Nature of the series: whole plant or invertebrate. The class given is in vivo. To be noted: Phytophthora infestans, in Solanum lycopersicum, 168 h, read-out: % Control of Tomato Late Blight, 100 ppm spray, day before inoculation.
For the next series, the system named is 5 Phytophthora species. The class given is cell-based. The note with it: 200.0 ppm in V-8 agar, 22° C., 6 days.
Another series deals with cucumber seedlings. Nature of the series: Phytotoxicity on cucumber seedlings (Example 80). The class given is in vivo. On the set-up: key: G = growth reduction; H = hormonal effects. To be noted: 100 ppm spray. Here is the method: The compounds of the previous example were again dissolved in acetone in an amount equal to 6% of the final volume and then suspended at a concentration of 100 ppm in purified water containing 250 ppm of the surfactant TREM 014 (polyhydric alcohol esters). These suspensions were sprayed to the point of run-off, on cucumber seedlings. The following day, the plants were inoculated with a spore suspension of the fungus Erysiphe cichoracearum, causal agent of cucumber powdery mildew, and incubated in a growth room for 7 days. Disease ratings were then made. Treated plants from successful treatments had little or no powdery mildew in contrast to untreated plants which were covered with powdery mildew. Phytotoxicity in the form of growth reduction or hormonal effects was observed on some of the plants in association with disease control.

The next series relates to apple seedlings. The series can be described thus: Phytotoxicity on apple seedlings (Example 82). The note with it: 100 ppm spray. The class given is in vivo. On the set-up: key: G = growth reduction; H = hormonal effects. The protocol:
These suspensions were sprayed to the point of run-off on apple seedlings. The following day, the plants were inoculated with a spore suspension of the fungus Venturia inaequalis, causal agent of apple scab, and incubated in a saturated humidity chamber at 20° for 24 hours and then in a growth room for an additional 10-12 days. Treated plants from successful treatments had fewer apple scab lesions when compared to untreated plants which were covered with scab lesions. Phytotoxicity expressed as growth reduction was observed on some of the plants in association with disease control.

A word on the inhibition of growth: it is the relative decrease from the control value, in per cent. With `C[Si](C)(Cn1cncn1)c1ccc(-c2ccccc2)cc1` [(1,1'-Biphenyl-4-yl)dimethyl(1H-1,2,4-triazol-1-ylmethyl)silane], the pest or weed control at 100 ppm in series [1] worked out at 100%; in the series with Cercospora arachidicola, 100%; in the series on Helminthosporium maydis, 90%; with Erysiphe cichoracearum, 100%; with Venturia inaequalis, 100%. The pest or weed control at 2 g/kg seed with Pythium aphanadermatum [2] is 12%; with Pythium aphanadermatum [3] it was 30%. The same compound showed an inhibition of growth at 100 µg/mL in the series on Monilinia fructicola of 100%.
With `C[Si](C)(Cn1cncn1)c1ccc(Cl)c(Cl)c1` [(3,4-Dichlorophenyl)dimethyl(1H-1,2,4-triazol-1-ylmethyl)silane], the pest or weed control at 100 ppm in [1] worked out at 60%; in the series on Rhizoctonia solani, 80%; in the series on Cercospora arachidicola, 0%; with Pyricularia oryzae, 0%; in the series on Erysiphe graminis, 100%; in the series with Helminthosporium maydis, 90%. For the same compound, the pest or weed control at 100 ppm in the series on Erysiphe cichoracearum stood at 100%; in the series on Phytophthora infestans it was 0%; with Venturia inaequalis it was 80%. For the same compound, the “No. of 5 Phytophthora species controlled in vitro” value in the series with 5 Phytophthora species was determined as 2. In the series on Pythium aphanadermatum [3], this compound came in with a pest or weed control at 2 g/kg seed of 43%.
Take `C[Si](C)(Cn1cncn1)c1ccc(Br)cc1` [(4-Bromophenyl)dimethyl(1H-1,2,4-triazol-1-ylmethyl)silane]: the pest or weed control at 100 ppm in [1] worked out at 80%; in the series on Cercospora arachidicola, 0%; with Pyricularia oryzae it was 0%; with Helminthosporium maydis, 90%; in the series with Erysiphe cichoracearum it was 100%; in the series with Phytophthora infestans, 0%. In addition, the pest or weed control at 100 ppm with Venturia inaequalis is 90%. Moreover, the Phytotoxicity on cucumber result in the series with cucumber seedlings was “G”. The Phytotoxicity on apple entry with apple seedlings is given as “G”.
As for `CCCC[Si](C)(Cn1cncn1)c1ccc(F)cc1` (stereo not drawn) [Butyl(4-fluorophenyl)methyl(1H-1,2,4-triazol-1-ylmethyl)silane], the pest or weed control at 100 ppm in series [1] was found to be 0%; in the series with Rhizoctonia solani it was 80%; in the series on Cercospora arachidicola it was 0%; with Pyricularia oryzae it was 100%; in the series with Helminthosporium maydis it was 0%; with Erysiphe cichoracearum, 100%. Also, the pest or weed control at 100 ppm stood at 0% in the series with Phytophthora infestans and 100% with Venturia inaequalis. Besides, the pest or weed control at 2 g/kg seed in the series on Pythium aphanadermatum [2] and with Pythium aphanadermatum [3] was 0% throughout. In the series on Monilinia fructicola, the inhibition of growth at 100 µg/mL is 100%.
On to `CCCC[Si](C)(C)Cn1cncn1` [Butyldimethyl(1H-1,2,4-triazol-1-ylmethyl)silane], for which the pest or weed control at 100 ppm was 0% in series [1]; 0% in the series with Cercospora arachidicola; 0% in the series with Pyricularia oryzae; 0% in the series with Helminthosporium maydis; 100% in the series on Erysiphe cichoracearum; 0% in the series with Phytophthora infestans. In the series on Venturia inaequalis, this compound yielded a pest or weed control at 100 ppm of 0%. Besides, the pest or weed control at 2 g/kg seed with Pythium aphanadermatum [2] and in the series with Pythium aphanadermatum [3] was 0% each time. Moreover, in the series on 5 Phytophthora species, the “No. of 5 Phytophthora species controlled in vitro” value was 1. The compound also showed an inhibition of growth at 100 µg/mL with Monilinia fructicola of 95%.
As to `C[Si](C)(Cn1cncn1)c1cccc2ccccc12` [Dimethyl(1-naphthalenyl)(1H-1,2,4-triazol-1-ylmethyl)silane], the pest or weed control at 100 ppm in series [1] is 0%; in the series on Rhizoctonia solani it was 0%; in the series with Cercospora arachidicola it was 90%; in the series with Pyricularia oryzae, 70%; in the series with Erysiphe graminis it was 0%; with Helminthosporium maydis, 0%. The pest or weed control at 100 ppm in the series with Erysiphe cichoracearum came to 100%; in the series with Phytophthora infestans it was 0%; in the series on Venturia inaequalis, 50%. Further, the pest or weed control at 2 g/kg seed with Pythium aphanadermatum [3] turned out to be 30%.
As for `C[Si](C)(Cn1cncn1)c1ccc(Oc2ccccc2)cc1` [Dimethyl(4-phenoxyphenyl)(1H-1,2,4-triazol-1-ylmethyl)silane], the pest or weed control at 100 ppm (in series [1]; with Rhizoctonia solani; in the series on Cercospora arachidicola; with Pyricularia oryzae; with Erysiphe graminis; in the series on Helminthosporium maydis) was 0% each time. Besides, the pest or weed control at 100 ppm in the series on Erysiphe cichoracearum is 70%; with Phytophthora infestans it was 50%; with Venturia inaequalis, 100%. Besides, the pest or weed control at 0.5 g/kg seed in the series on Pythium aphanadermatum [2] (0.5 gm/kg seed) turned out to be 18%. In addition, in the series with 5 Phytophthora species, the “No. of 5 Phytophthora species controlled in vitro” value stood at 0. The compound further yielded a pest or weed control at 2 g/kg seed in the series on Pythium aphanadermatum [3] of 0%.
For `C[Si](Cn1cncn1)(c1ccccc1)c1ccccc1` [Methyldiphenyl(1H-1,2,4-triazol-1-ylmethyl)silane], the pest or weed control at 100 ppm in series [1] is 0%; in the series with Rhizoctonia solani, 0%; in the series with Cercospora arachidicola it was 100%; in the series with Pyricularia oryzae, 0%; in the series on Erysiphe graminis it was 100%; with Helminthosporium maydis, 80%. Also, the values for the pest or weed control at 100 ppm in the series on Erysiphe cichoracearum, in the series with Phytophthora infestans and in the series on Venturia inaequalis were 100%, 0% and 100%, respectively. The pest or weed control at 2 g/kg seed in the series on Pythium aphanadermatum [2] and in the series with Pythium aphanadermatum [3] was 0% throughout. Further, in the series on cucumber seedlings, the Phytotoxicity on cucumber result was “G”.
Turning to `C[Si](C)(Cn1cncn1)c1ccc(Oc2ccc(Cl)cc2)cc1` [[4-(4-Chlorophenoxy)phenyl]dimethyl(1H-1,2,4-triazol-1-ylmethyl)silane], the pest or weed control at 100 ppm in series [1] was determined as 90%; in the series on Rhizoctonia solani, 0%; in the series with Cercospora arachidicola, 0%; in the series with Pyricularia oryzae, 0%; in the series with Helminthosporium maydis, 50%; in the series with Erysiphe cichoracearum it was 80%. For the same compound, the values for the pest or weed control at 100 ppm in the series with Phytophthora infestans and in the series on Venturia inaequalis were 50% and 100%, respectively. Moreover, the “No. of 5 Phytophthora species controlled in vitro” value in the series with 5 Phytophthora species was determined as 0.
